{"source": "ChEMBL document CHEMBL5055626", "about": "(J Med Chem, 2021)", "format_in_all_cases": "cell-based", "conditions_in_all_cases": "Oocyte", "key": {"[1]": {"test": "Antagonist activity at rat alpha6/ alpha3beta2beta3 nAChR expressed in xenopus oocytes assessed as inhibition of Ach- induced response at -70 mV holding potential preincubated for 5 mins followed by Ach stimulation by voltage-clamp based electrophysiological method"}, "[2]": {"test": "Antagonist activity at rat nAChR alpha7 R6K mutant expressed in xenopus oocytes assessed as inhibition of Ach- induced response at -70 mV holding potential preincubated for 5 mins followed by Ach stimulation by voltage-clamp based electrophysiological method"}, "[3]": {"test": "Antagonist activity at rat nAChR alpha7 Q141H mutant expressed in xenopus oocytes assessed as inhibition of Ach- induced response at -70 mV holding potential preincubated for 5 mins followed by Ach stimulation by voltage-clamp based electrophysiological method"}, "[4]": {"test": "Antagonist activity at rat nAChR alpha7 M177V mutant expressed in xenopus oocytes assessed as inhibition of Ach- induced response at -70 mV holding potential preincubated for 5 mins followed by Ach stimulation by voltage-clamp based electrophysiological method"}, "[5]": {"test": "Antagonist activity at rat nAChR alpha7 Y200F mutant expressed in xenopus oocytes assessed as inhibition of Ach- induced response at -70 mV holding potential preincubated for 5 mins followed by Ach stimulation by voltage-clamp based electrophysiological method"}, "[6]": {"test": "Antagonist activity at human nAChR alpha7 S184N/R186K double mutant expressed in xenopus oocytes assessed as inhibition of Ach- induced response at -70 mV holding potential preincubated for 5 mins followed by Ach stimulation by voltage-clamp based electrophysiological method"}, "[7]": {"test": "Antagonist activity at human nAChR alpha7 H141Q/S184N/R186K triple mutant expressed in xenopus oocytes assessed as inhibition of Ach- induced response at -70 mV holding potential preincubated for 5 mins followed by Ach stimulation by voltage-clamp based electrophysiological method"}, "[8]": {"biological_target": "Nicotinic acetylcholine receptor alpha9/alpha10 (Rattus norvegicus) (UniProt P43144+Q9JLB5)", "test": "Antagonist activity at rat alpha9alpha10 nAChR expressed in xenopus oocytes assessed as inhibition of Ach- induced response at 10 uM at -70 mV holding potential preincubated for 5 mins followed by Ach stimulation by voltage-clamp based electrophysiological method"}}, "note": "Active and inactive are the calls of the source. The rule behind the calls is not given here. Where a SMILES comes first, the peptide text is derived from it. Bridges are numbered along the chain shown (N, C = ends)."}
{"smiles": "C[C@@H]1NC(=O)[C@@H]2CSSC[C@H](NC(=O)CN)C(=O)N[C@@H](CSSC[C@@H](C(N)=O)NC(=O)[C@H](Cc3cnc[nH]3)NC(=O)[C@H](CCC(=O)O)NC(=O)[C@H](Cc3cnc[nH]3)NC1=O)C(=O)N[C@@H](CO)C(=O)N[C@@H](CC(N)=O)C(=O)N1CCC[C@H]1C(=O)N1CCC[C@H]1C(=O)N2", "note": "(H-GCCSNPPCAHEHC-NH2; disulfide 2-8, 3-13)", "values": [{"measurement": "IC50", "setting": "[1]", "result": 150, "unit": "nM"}, {"measurement": "IC50", "setting": "[2]", "result": 170, "unit": "nM"}, {"measurement": "IC50", "setting": "[3]", "result": 300, "unit": "nM"}, {"measurement": "IC50", "setting": "[4]", "result": 160, "unit": "nM"}, {"measurement": "IC50", "setting": "[5]", "result": 190, "unit": "nM"}, {"measurement": "IC50", "setting": "[6]", "result": 530, "unit": "nM"}, {"measurement": "IC50", "setting": "[7]", "result": 220, "unit": "nM"}, {"measurement": "inhibition", "setting": "[8]", "result": "inactive"}]}
